Assay results published in PMC4392921 (Diabetes, 2014).

Test system: CD4+ T-cell clones specific for modified GAD65 epitopes
Assay: T-cell clone proliferation assay, [3H]-thymidine incorporation
Assay type: cell-based, human
Settings: GAD154E,164E-specific T cells (data not shown)

TTG-treated GAD: GAD65 protein unfolded by heating and treated with transglutaminase
proliferation in response to treated GAD protein: not able to proliferate
